Columns and labels:
[1] = Evaluation of ionization potential (AC-1 ultraviolet photoelectron analyzer); format: physicochemical; settings: atmosphere type ultraviolet photoelectron analyzing apparatus AC-1
Source text: The respective triphenylamine derivatives HTM-1 to HTM-14 were each evaluated for the ionization potential. An atmosphere type ultraviolet photoelectron analyzing apparatus (AC-1 manufactured by Riken Keiki Co., Ltd.) was used to measure the ionization potential.

[2] = Evaluation of solubility in tetrahydrofuran; format: physicochemical; settings: 25° C., {100/(100+X)}×100
Procedure: The thus obtained triphenylamine derivatives HTM-1 to HTM-14 each as the hole transport material were evaluated for the solubility. A small amount of tetrahydrofuran was added to 100 mg of each triphenylamine derivative under the temperature of 25° C. Then, the resulting sample was vibrated and left to stand. This process was repeated to measure the added amount X (mg) of tetrahydrofuran dissolved in the triphenylamine derivative to saturation. With the added amount X, the equation below gives the solubility. Solubility (%)={100/(100+X)}×100 <Evaluation of Ionization Potentials>

SMILES	Ionization Potential [1]	THF Solubility [2]
CCOc1ccccc1N(c1ccc(/C=C/C=C/c2ccccc2)cc1)c1ccc(/C=C/C=C/c2ccccc2)cc1 [HTM-1]	5.38 eV	25.0%
CCOc1cccc(C)c1N(c1ccc(/C=C/C=C/c2ccccc2)cc1)c1ccc(/C=C/C=C/c2ccccc2)cc1 [HTM-2]	5.37 eV	23.5%
CCCCOc1ccccc1N(c1ccc(/C=C/C=C/c2ccccc2)cc1)c1ccc(/C=C/C=C/c2ccccc2)cc1 [HTM-3]	5.39 eV	24.1%
CCOc1cc(C)ccc1N(c1ccc(/C=C/C=C/c2ccccc2)cc1)c1ccc(/C=C/C=C/c2ccccc2)cc1 [HTM-4]	5.39 eV	22.8%
COc1ccc(N(c2ccc(/C=C/C=C/c3ccccc3)cc2)c2ccc(/C=C/C=C/c3ccccc3)cc2)c(OC)c1 [HTM-5]	5.33 eV	20.0%
COc1ccc(N(c2ccc(/C=C/C=C/c3ccccc3)cc2)c2ccc(/C=C/C=C/c3ccccc3)cc2)c(C)c1 [HTM-6]	5.38 eV	24.5%
CCOc1ccc(N(c2ccc(/C=C/C=C/c3ccccc3)cc2)c2ccc(/C=C/C=C/c3ccccc3)cc2)c(C)c1 [HTM-7]	5.39 eV	25.8%
C(/C=C/c1ccc(N(c2ccc(/C=C/C=C/c3ccccc3)cc2)c2ccc(Oc3ccccc3)cc2)cc1)=C\c1ccccc1 [HTM-8]	5.48 eV	21.0%
Cc1ccc(N(c2ccc(/C=C/C=C/c3ccccc3)cc2)c2ccc(/C=C/C=C/c3ccccc3)cc2)c(C)c1 [HTM-9]	5.46 eV	12.3%
CCCCc1ccc(N(c2ccc(/C=C/C=C/c3ccccc3)cc2)c2ccc(/C=C/C=C/c3ccccc3)cc2)cc1 [HTM-10]	5.42 eV	17.8%
Cc1cccc(C)c1N(c1ccc(/C=C/C=C/c2ccccc2)cc1)c1ccc(/C=C/C=C/c2ccccc2)cc1 [HTM-11]	5.55 eV	11.4%
COc1ccc(N(c2ccc(/C=C/C=C/c3ccccc3)cc2)c2ccc(/C=C/C=C/c3ccccc3)cc2)cc1 [HTM-12]	5.43 eV	7.5%
COc1cccc(N(c2ccc(/C=C/C=C/c3ccccc3)cc2)c2ccc(/C=C/C=C/c3ccccc3)cc2)c1 [HTM-13]	5.45 eV	6.1%
COc1ccccc1N(c1ccc(/C=C/C=C/c2ccccc2)cc1)c1ccc(/C=C/C=C/c2ccccc2)cc1 [HTM-14]	5.43 eV	6.3%

From patent publication US9376371B2, “Triphenylamine derivative, method for manufacturing the same, and electrophotographic photosensitive member” (KYOCERA DOCUMENT SOLUTIONS INC., priority 2013, dated 2016)
